In PubChem BioAssay AID1259408 (Genetic Toxicology Data Bank (GENE-TOX), 2018) one finds mutagenic call and call data, which are given here for 19 molecules.

This series concerns GENE-TOX genotoxicity assays, various organisms and cells. The series can be described thus: GENE-TOX mutagenicity studies. The conditions noted are these: for call: Assay Type: In vivo carcinogenicity studies.
Setting [1] is: Species/Cell Type: Salmonella typhimurium (one or more of the five standard strains: TA98, TA100, TA1535, TA1537, and TA1538), Assay Type: Histidine reverse gene mutation, Ames assay, Assay Code: SALT, Evaluation Type: Evaluation A (Pre-1980).
[2] abbreviates: Species/Cell Type: Salmonella typhimurium (one or more of the five standard strains: TA98, TA100, TA1535, TA1537, and TA1538), Assay Type: Histidine reverse gene mutation, Ames assay, Assay Code: SAL+, Evaluation Type: Evaluation A (Pre-1980).
Where [3] appears, read: Species/Cell Type: Salmonella typhimurium (one or more of the five standard strains: TA98, TA100, TA1535, TA1537, and TA1538), Assay Type: Histidine reverse gene mutation, Ames assay, Assay Code: SAL-, Evaluation Type: Evaluation A (Pre-1980).
[4] abbreviates: Species/Cell Type: Bacillus subtilis (H17 vs M45), Assay Type: Rec-assay, spot test, DNA effects (bacterial DNA repair), Assay Code: REWT, Evaluation Type: Evaluation A (Pre-1980).
Where [5] appears, read: Species/Cell Type: Nonhuman, Assay Code: CCG+L, Evaluation Type: Evaluation A (Pre-1980).
The mark [6] stands for this setting: Species/Cell Type: Saccharomyces cerevisiae, Assay Type: Mitotic recombination or gene conversion, Assay Code: YEH-, Evaluation Type: Evaluation A (Pre-1980).
Where [7] appears, read: Species/Cell Type: Neurospora crassa, Assay Type: Aneuploidy, chromosome aberrations, Assay Code: NEN-, Evaluation Type: Evaluation A (Pre-1980).
[8] abbreviates: Species/Cell Type: Rodents, Sex: Male, Assay Type: Dominant lethal test, Assay Code: DLTT, Evaluation Type: Evaluation A (Pre-1980).

Activity calls are given as the source filed them. No rule for the calls is given here.

In the case of `Cc1cc(C)cc(C2CO2)c1` (stereo not given), the mutagenic call (Species/Cell Type: Human lymphocytes, Assay Type: Sister-chromatid exchange (SCE) in vitro, Assay Code: SCL+D, Dose Response: With dose response, Evaluation Type: Evaluation B (Post-1980)) is “active; positive” and the mutagenic call (Species/Cell Type: Human, Assay Type: Sister-chromatid exchange (SCE) in vitro, Assay Code: SC1+D, Dose Response: With dose response, Evaluation Type: Evaluation B (Post-1980)) was “active; positive”.
With `CC(C)(C)N(CCCCO)N=O`, under setting [1], the mutagenic call is recorded as “no conclusion”.
`C#C[C@]1(OC(C)=O)CC[C@H]2[C@@H]3CCC4=CC(=O)CC[C@@H]4[C@H]3CC[C@@]21C` (tested in a mixture with another compound): the mutagenic call (Species/Cell Type: Rodents, Sex: Male, Assay Type: Dominant lethal test, Assay Code: DLT-, Evaluation Type: Evaluation A (Pre-1980)) is “inactive; negative”.
For `Cc1ccc(N)c(N)c1`, where the note is “Species/Cell Type: Mammalian polychromatic erythrocytes, Assay Type: Micronucleus test, chromosome aberrations, Assay Code: MNT+, Evaluation Type: Evaluation B (Post-1980)”, the mutagenic call was “active; positive”.
In the case of `Cc1cc(O)ccc1C1(c2ccc(O)cc2C)OS(=O)(=O)c2ccccc21`, where the note is “Species/Cell Type: Allium cepa, Assay Type: Chromosome aberrations, Assay Code: ALC+D, Dose Response: With dose response, Evaluation Type: Evaluation A (Pre-1980)”, the mutagenic call is “active; positive”.
Consider `BrCc1c2ccccc2cc2ccccc12`, for which the mutagenic call under setting [2] was “active; positive”.
As for `c1ccc2c(c1)cc1ccc3cc4ccccc4c4ccc2c1c34`, the call (Species/Cell Type: Nonhuman, Assay Code: CCG+, Evaluation Type: Evaluation A (Pre-1980)) was “active; positive”. Also, the mutagenic call (Species/Cell Type: Salmonella typhimurium (one or more of the five standard strains: TA98, TA100, TA1535, TA1537, and TA1538), Assay Type: Histidine reverse gene mutation, Ames assay, Assay Code: SAL+*, Activation: With metabolic activation, Evaluation Type: Evaluation A (Pre-1980)) was “active; positive”.
As for `CC1(C)S[C@@H]2[C@H](NC(=O)Cc3ccccc3)C(=O)N2[C@H]1C(=O)O`, the mutagenic call reads like this: (Species/Cell Type: Drosophila melanogaster, Assay Type: Sex-linked recessive lethal gene mutation, Assay Code: SRLT, Evaluation Type: Evaluation A (Pre-1980)) “no conclusion”; under setting [3], “inactive; negative”.
For the molecule `COC1=CC(=O)C[C@@H](C)[C@]12Oc1c(Cl)c(OC)cc(OC)c1C2=O`, the mutagenic call is “active; positive” (Species/Cell Type: Allium cepa, Assay Type: Chromosome aberrations, Assay Code: ALC+, Evaluation Type: Evaluation A (Pre-1980)); “active; positive” (Species/Cell Type: Aspergillus nidulans, Assay Type: Aneuploidy, chromosome aberrations, Assay Code: ASN+, Evaluation Type: Evaluation A (Pre-1980)); “no conclusion” (Species/Cell Type: Aspergillus nidulans, Assay Type: Mitotic recombination, Assay Code: ASGT, Evaluation Type: Evaluation A (Pre-1980)); “no conclusion” under setting [4]; “no conclusion” (Species/Cell Type: Escherichia coli polA (W3119 vs P3478), Assay Type: Rec-assay, DNA effects (bacterial DNA repair), Assay Code: RE1T, Evaluation Type: Evaluation A (Pre-1980)); “no conclusion” (Species/Cell Type: Mammalian polychromatic erythrocytes, Assay Type: Micronucleus test, chromosome aberrations, Assay Code: MNTT, Evaluation Type: Evaluation A (Pre-1980)). For the same molecule, the mutagenic call runs as follows: (Species/Cell Type: Mouse, Sex: Male, Assay Type: Sperm morphology, Assay Code: SPI+, Evaluation Type: Evaluation A (Pre-1980)) “active; positive”; (Species/Cell Type: Nonhuman, Assay Type: Sister-chromatid exchange (SCE) in vivo, Assay Code: SC3+D, Dose Response: With dose response, Evaluation Type: Evaluation B (Post-1980)) “active; positive”; under setting [6], “inactive; negative”; under setting [1], “no conclusion”. Moreover, the call under setting [5] was “active; positive”.
Regarding `O=c1c2ccccc2sc2c(CO)ccc(NCCN3CCCCC3)c12`, the mutagenic call (Species/Cell Type: Mouse lymphoma (L5178Y) cells, Assay Type: Forward gene mutation at the thymidine kinase (TK) locus, chromosome aberrations, Assay Code: L51+, Evaluation Type: Evaluation A (Pre-1980)) is “active; positive”.
With `O=S(=O)(O)c1ccc(N=Nc2c(O)ccc3ccccc23)c2ccccc12`, under setting [4], the mutagenic call is reported as “no conclusion”.
With `O=C1CCCCCO1`, the mutagenic call by setting is: (Species/Cell Type: Escherichia coli polA (W3110 vs P3478), Assay Type: Rec-assay, DNA effects (bacterial DNA repair), Assay Code: RE2-, Evaluation Type: Evaluation A (Pre-1980)) “inactive; negative”; (Species/Cell Type: Escherichia coli polA (W3119 vs P3478), Assay Type: Rec-assay, DNA effects (bacterial DNA repair), Assay Code: RE1-, Evaluation Type: Evaluation A (Pre-1980)) “inactive; negative”; (Species/Cell Type: Mouse lymphoma (L5178Y) cells, Assay Type: Forward gene mutation at the thymidine kinase (TK) locus, chromosome aberrations, Assay Code: L51-, Evaluation Type: Evaluation A (Pre-1980)) “inactive; negative”; (Species/Cell Type: Nonhuman, Assay Type: Sister-chromatid exchange (SCE) in vitro, Assay Code: SC2-, Evaluation Type: Evaluation A (Pre-1980)) “inactive; negative”; under setting [6], “inactive; negative”; under setting [3], “inactive; negative”. Moreover, the mutagenic call reads like this: (Species/Cell Type: Salmonella typhimurium, Assay Type: Forward and reverse gene mutation, host-mediated assay, Assay Code: HMA-, Evaluation Type: Evaluation A (Pre-1980)) “inactive; negative”; (Species/Cell Type: Syrian hamster embryo (SHE) cells, Assay Type: Cell transformation, clonal assay, Assay Code: CTC-, Evaluation Type: Evaluation A (Pre-1980)) “inactive; negative”.
`CC(C)O`: the mutagenic call was “inactive; negative” under setting [7] and “inactive; negative” (Species/Cell Type: Syrian hamster embryo (SA7/SHE) cells, Assay Type: Cell transformation, viral enhanced, Assay Code: CT7-, Evaluation Type: Evaluation A (Pre-1980)).
For `CCN(CCCl)CCCNc1c2ccc(Cl)cc2nc2ccc(OC)cc12`, the mutagenic call by setting is: (Species/Cell Type: Chinese hamster lung (V79) cells, Assay Type: Forward gene mutation at the HPRT or ouabain locus, Assay Code: V79+, Evaluation Type: Evaluation A (Pre-1980)) “active; positive”; (Species/Cell Type: Chinese hamster ovary (CHO) cells, Assay Type: Forward gene mutation at the HPRT locus, Assay Code: CHO+D, Dose Response: With dose response, Evaluation Type: Evaluation A (Pre-1980)) “active; positive”; (Species/Cell Type: Drosophila melanogaster, Assay Type: Sex-linked recessive lethal gene mutation, Assay Code: SRL+, Evaluation Type: Evaluation A (Pre-1980)) “active; positive”; (Species/Cell Type: Neurospora crassa, Assay Type: Forward gene mutation, Assay Code: NEF+, Evaluation Type: Evaluation A (Pre-1980)) “active; positive”; (Species/Cell Type: Neurospora crassa, Assay Type: Reverse gene mutation, Assay Code: NER+, Evaluation Type: Evaluation A (Pre-1980)) “active; positive”; under setting [8], “no conclusion”. Further, the mutagenic call reads like this: (Species/Cell Type: Saccharomyces cerevisiae, Assay Type: Forward gene mutation, Assay Code: YEF+, Evaluation Type: Evaluation A (Pre-1980)) “active; positive”; (Species/Cell Type: Saccharomyces cerevisiae, Assay Type: Mitotic recombination or gene conversion, Assay Code: YEC+, Evaluation Type: Evaluation A (Pre-1980)) “active; positive”; (Species/Cell Type: Saccharomyces cerevisiae, Assay Type: Mitotic recombination or gene conversion, Assay Code: YEH+, Evaluation Type: Evaluation A (Pre-1980)) “active; positive”; (Species/Cell Type: Saccharomyces cerevisiae, Assay Type: Reverse gene mutation, Assay Code: YER+, Evaluation Type: Evaluation A (Pre-1980)) “active; positive”; under setting [2], “active; positive”; (Species/Cell Type: Vicia faba, Assay Type: Chromosome aberrations, Assay Code: VIC+D, Dose Response: With dose response, Evaluation Type: Evaluation A (Pre-1980)) “active; positive”. In addition, under setting [5], the call is “active; positive”.
Take `CCC[CH2][Sn]([CH2]CCC)([CH2]CCC)[O][Sn]([CH2]CCC)([CH2]CCC)[CH2]CCC`: for the setting “Species/Cell Type: Mammalian polychromatic erythrocytes, Assay Type: Micronucleus test, chromosome aberrations, Assay Code: MNT+U, Dose Response: Unconfirmed positive response, Evaluation Type: Evaluation B (Post-1980)”, the mutagenic call was “active; positive”.
Take `[CH3][Hg][CH3]`: the mutagenic call reads like this: (Species/Cell Type: Mammalian oocytes or early embryo, Assay Type: Chromosome aberrations in vivo, Assay Code: CYO-, Evaluation Type: Evaluation A (Pre-1980)) “inactive; negative”; under setting [8], “no conclusion”.
For the molecule `c1csc(-c2ccc(-c3cccs3)s2)c1`, where the note is “Species/Cell Type: Nonhuman, Assay Type: Sister-chromatid exchange (SCE) in vitro, Assay Code: SC2T, Evaluation Type: Evaluation B (Post-1980)”, the mutagenic call is “no conclusion”.
Take `[O]=[Sn]([OH])[OH]`: the mutagenic call (Species/Cell Type: Bacillus subtilis (H17 vs M45), Assay Type: Rec-assay, spot test, DNA effects (bacterial DNA repair), Assay Code: REW-, Evaluation Type: Evaluation A (Pre-1980)) is “inactive; negative”.
With `CN1CCC[C@H]1c1cccnc1`, the mutagenic call is “inactive; negative” under setting [7]; “active; positive” (Species/Cell Type: Nonhuman, Assay Type: Sister-chromatid exchange (SCE) in vitro, Assay Code: SC2+, Evaluation Type: Evaluation B (Post-1980)); “inactive; negative” under setting [3].
